What all share (parameters): species or system rat
The subject of assay [1] is Male Wistar rats. The experiment in a line: In vivo LTP in hippocampal CA1 (field EPSP slope), weak HFS protocol, icv injection. To be noted: 15 nmol icv, LTP induced 30 min post-injection, n=6. From the text: (§1) Male Wistar rats weighing 220-280 g were anaesthetised with urethane (ethyl carbamate, 1.8 g/kg, i.p.) for the duration of all experiments. The animals had been obtained from Harlan, United Kingdom (UK).
(§2) A cannula (22 gauge, 0.7 mm outer diameter, 11 mm in length, Bilaney, Kent, UK) was implanted (1.5 mm anterior to bregma, 0.5 mm lateral to the midline and 3.55 mm ventral) into the left hemisphere for intracerebroventricular (icv) injections. Electrodes (tungsten with Teflon coating, Bilaney, Kent, UK) were implanted unilaterally 3.4 mm posterior and 2.5 mm lateral to the midline, and the stimulating electrode 4.2 mm posterior to bregma and 3.8 mm lateral to the midline. […] Recordings of EPSPs were made from the stratum radiatum in the CA1 region of the right hippocampal hemisphere in response to stimulation of the Schaffer collateral/commissural pathway.
(§3) Field EPSPs were recorded on a computerised stimulating and recording unit (PowerLab, ADI instruments, UK) in which the trigger threshold was adjustable. The triggered unit activated a constant current stimulus isolation unit (Neurolog, UK). The data acquisition system was triggered simultaneously to record all events. Sampling speed was at 20 kHz recording of EPSPs.
(§4) The ‘strong’ high frequency stimulation (HFS) protocol for inducing LTP consisted of 3 trains of 200 stimuli, inter-stimulus interval 5 ms (200 Hz), inter-train interval 2 sec. […] The ‘weak’ HFS protocol for inducing LTP consisted of 10 trains of 10 stimuli, inter-stimulus interval 5 ms (200 Hz). The strong HFS was used to test the effects of peptides that impair LTP (beta-amyloid), and the weak HFS was used to test peptides that facilitate LTP. In this form of LTP, the control group is not potentiated at a maximal rate, and LTP can decay slowly over time.
(§5) Stimulation intensity was 70% of the maximum EPSP. LTP was measured as a % of baseline EPSP slope recorded over a 30 min period prior to drug injection and 60 min prior to application of HFS. Baseline was recorded for 30 min and averaged. This value was taken as 100% of the EPSP slope and all recoded values were normalised to this baseline value.
Beta-amyloid(25-35) and other peptides used in this study were synthetised on an Applied Biosystems automated peptides synthesiser (Model 432A) using standard solid-phase Fmoc protocols. Peptides were judged pure by reversed phase HPLC on a Waters Millennium 2010 chromatography system, and peptides were subsequently characterised using matrix-assisted laser desorption/ionisation time of flight (MALDI-TOF) mass spectrometry as described previously (Gengler et al., 2006; Hölscher et al., 2007). Peptides were stored in dry form and dissolved in double distilled water before the experiments. 5 μl of peptide solution was injected icv.
(§6) Each group consisted of 6 animals. Data were analysed using a repeated measures two-way ANOVA, or a repeated measures three level two-way ANOVA with post-hoc tests to discriminate between groups (PRISM, GraphPad software Inc, USA).

Assay [2] deals with Male Wistar rats. The experiment in a line: In vivo LTP in hippocampal CA1 (field EPSP slope), strong HFS protocol, icv injection.
From the text: as §1, §2, §3, §4, §5
Beta-amyloid(25-35) and other peptides used in this study were synthetised on an Applied Biosystems automated peptides synthesiser (Model 432A) using standard solid-phase Fmoc protocols. […]
as §6

The test system of assay [3] is Male Wistar rats. The experiment in a line: In vivo prevention of beta-amyloid(25-35)-induced impairment of LTP in hippocampal CA1. To be noted: n=6, FIG. 5.
From the text: as §1
A cannula (22 gauge, 0.7 mm outer diameter, 11 mm in length, Bilaney, Kent, UK) was implanted (1.5 mm anterior to bregma, 0.5 mm lateral to the midline and 3.55 mm ventral) into the left hemisphere for intracerebroventricular (icv) injections. Electrodes (tungsten with Teflon coating, Bilaney, Kent, UK) were implanted unilaterally 3.4 mm posterior and 2.5 mm lateral to the midline, and the stimulating electrode 4.2 mm posterior to bregma and 3.8 mm lateral to the midline. […]
Field EPSPs were recorded on a computerised stimulating and recording unit (PowerLab, ADI instruments, UK) in which the trigger threshold was adjustable. […]
Stimulation intensity was 70% of the maximum EPSP. LTP was measured as a % of baseline EPSP slope recorded over a 30 min period prior to drug injection and 60 min prior to application of HFS. Baseline was recorded for 30 min and averaged. […]
Each group consisted of 6 animals. Data were analysed using a repeated measures two-way ANOVA, or a repeated measures three level two-way ANOVA with post-hoc tests to discriminate between groups (PRISM, GraphPad software Inc, USA). […]

Where [4] appears, read: 15 nmol icv, LTP induced 30 min post-injection, n=6.

Non-standard residues stand in square brackets, D forms with d. No end group written: not given here. *: point of attachment. mPEG = mini-PEG HO—(CH2—O—CH2)n—H, n about 3; Myristoyl = CCCCCCCCCCCCCC(=O)*

Take “GIP[mPEG]: C-terminal mini-PEGylated human GIP(1-42), polymer moiety HO—(CH2—O—CH2)n—H, n about 3 (YAEGTFISDYSIAMDKIHQQDFVNWLLAQKGKKNDWKHNITQ-mPEG; UniProt P09681 52-93, looked up)”: the “effect on long-term potentiation (LTP; change in EPSP) compared with control” value in the assay on Male Wistar rats [1] is recorded as “enhanced long-term potentiation (LTP) compared with control”.
On to “GIP[Lys(37)Myristic acid]: GIP analogue created by Myristic acid addition at an epsilon amino group of Lys(37) (YAEGTFISDYSIAMDKIHQQDFVNWLLAQKGKKNDWK(Myristoyl)HNITQ; UniProt P09681 52-93, looked up)”, for which, in the assay on Male Wistar rats [1], the “effect on long-term potentiation (LTP; change in EPSP) compared with control” value was “enhanced long-term potentiation (LTP) compared with control”.
For the substance “Ala(1)GIP: human GIP(1-42) in which Tyr at position 1 has been replaced with L-Ala (AAEGTFISDYSIAMDKIHQQDFVNWLLAQKGKKNDWKHNITQ; Synthetic analogue derived from human GIP(1-42))”, the “effect on long-term potentiation (LTP; change in EPSP) compared with control” value with Male Wistar rats [2] (setting [4]) is listed as “attenuated long-term potentiation (LTP) compared with control”.
Turning to “N-AcGIP: N-terminally acetylated human GIP(1-42)”, in the assay on Male Wistar rats [1], the “effect on long-term potentiation (LTP; change in EPSP) compared with control” value is listed as “enhanced long-term potentiation (LTP) compared with control”. Further, in the assay with Male Wistar rats [3] (15 nmol icv, 100 nmol βA(25-35) injected 30 min later, LTP induced 15 min post-βA injection, p<0.001 vs βA group), the “effect on βA(25-35)-induced impairment of LTP” value is “attenuated the βA(25-35)-induced impairment of LTP”.
For the substance “Pro(3)GIP: human GIP(1-42) in which Glu at position 3 has been replaced with L-Pro (YAPGTFISDYSIAMDKIHQQDFVNWLLAQKGKKNDWKHNITQ; Synthetic analogue derived from human GIP(1-42))”, the “effect on long-term potentiation (LTP; change in EPSP) compared with control” value in the assay with Male Wistar rats [2] (setting [4]) is “attenuated long-term potentiation (LTP) compared with control”.
With “D-Ala(2)GIP: human GIP(1-42) in which L-Ala at position 2 has been replaced with D-Ala (Y[dA]EGTFISDYSIAMDKIHQQDFVNWLLAQKGKKNDWKHNITQ)”, the “effect on long-term potentiation (LTP; change in EPSP) compared with control” value in the assay with Male Wistar rats [1] is “enhanced long-term potentiation (LTP) compared with control”.
Turning to “βA(25-35): beta-amyloid fragment 25-35, synthesised peptide used to impair LTP (GSNKGAIIGLM; Amyloid-beta protein 42; UniProt P05067 696-706, looked up, fragment) [reference compound]”, the “effect on long-term potentiation (LTP; change in EPSP) compared with control” value in the assay with Male Wistar rats [2] (10 nmol icv, LTP induced 15 min post-injection, p<0.01, n=6, FIG. 2) is reported as “impaired long-term potentiation (LTP) compared with control”; with Male Wistar rats [2] (100 nmol icv, LTP induced 15 min post-injection, p<0.005, n=6, FIG. 2), “LTP development was also impaired”. Besides, in the assay on Male Wistar rats [3] (100 nmol icv alone, LTP induced 15 min post-injection, p<0.001), the “effect on LTP compared with control (Example 5 experiment)” value is “difference between the βA(25-35) group and control”.
As for “GIP: Human gastric inhibitory polypeptide, full length 42 amino acid peptide, SEQ ID NO: 1 (YAEGTFISDYSIAMDKIHQQDFVNWLLAQKGKKNDWKHNITQ; listed as Homo sapiens)”, in the assay with Male Wistar rats [1], the “effect on long-term potentiation (LTP; change in EPSP) compared with control” value is recorded as “increased long-term potentiation (LTP) compared with control”.

The record behind these values is patent US9062125B2, “Use of GIP for the treatment of disorders associated with dysfunctional synaptic transmission” (Innovation Ulster Limited, priority 2007, dated 2015).
